Data reported in publication PMC7144376, “Antiviral Effects of Novel 2-Benzoxyl-Phenylpyridine Derivatives” (Molecules, 2020).

Tests used:
Assay type in all cases: cell-based, Coxsackievirus B3
CVB3 [1] = assay: Analysis of effective stage (prevention, mixture, treatment modes); settings: Hep-2 cells, cell viability after 48 h; for inhibition of CVB3, compound added just before or during infection: prevention and mixture modes; for inhibitory effect against CVB3, compound added post infection: treatment mode
Method: The mechanisms by which W9, W13, and W15 inhibit CVB3 infection were further investigated by three different approaches, using ribavirin as a positive control. Antiviral effects against CVB3 were detected by measuring cell viability after 48 h of infection when cells were treated with compounds W9, W13, and W15 before, simultaneously, or after inoculation with CVB3 (100 TCID50).
(§1) Figure 3 Analysis of the modes of action of W9, W13, and W15 against CVB3. (a) Analysis of effective stage. The antiviral effects of test compounds against CVB3 were detected by measuring cell viability after 48 h of infection when cells were treated with W9, W13, or W15 before, simultaneously, or after inoculation with CVB3 (100 TCID50). (b) Analysis of the effects on CVB3 adsorption. Mock-, 120 μM W-9-, 160 μM W-13-, 160 μM W-15-, or 160 μM ribavirin-treated CVB3 (10^6 TCID50) was inoculated onto Hep-2 cells and adsorbed for 2 h. Infected cells were then harvested and subjected to virus titration, using the TCID50 method. (c) The effects of test compounds on CVB3 release from Hep-2 cells. Hep-2 cells infected with 100 TCID50 of CVB3 were incubated with test compounds for 12 h, then cells and culture supernatants (intra- and extracellular) analyzed for virus yield, separately or together. Mock, no infection; VC, virus control. Values represent the means ± SDs of three independent experiments. * p < 0.05; ** p < 0.01, compared with the virus control group.
To identify the step in the life cycle of CVB3 that was affected by the compounds, various concentrations of W9, W13, and W15 were added to Hep-2 cells, and the following three treatment procedures conducted: (i) To evaluate preventive effects (prevention mode of action), various concentrations of compounds were added to cells for 2 h at 37 °C, followed by washing with MM before virus infection; (ii) To analyze for inhibition of adsorption (mixture mode of action), a mixture of compound and virus was added to cells for 2 h at 37 °C, followed by washing with MM; (iii) To assess therapeutic effects (treatment mode of action), cells were first infected for 2 h at 37 °C, followed by washing with MM, addition of the compounds, and incubation for the duration of the experiment. For all procedures, cell viability was estimated after 48 h of infection, using MTT assays.

CVB3 [2] = assay: Time course of CVB3 progeny yield in Hep-2 cells; settings: 160 μM, 32 h pi
Method: To further investigate the effects of these compounds on CVB3 replication, we analyzed the efficacy of representative compound, W13, in inhibiting viral progeny yield, RNA synthesis, and protein translation. Infected cells treated with or without 160 μM W-13 were harvested after 4 h, 8 h, 16 h and 32 h, viral progeny yields were determined using the Reed–Muench method, and quantitative reverse transcription polymerase chain reaction analysis of harvested cells were conducted, to evaluate the relative amounts of viral RNA. […] Figure 5b illustrates the efficacy of W-13 in inhibiting viral RNA synthesis. […]
Figure 5 Effect of W13 on CVB3 replication in Hep-2 cells. […] (a) Progeny virus yields were determined. (b) Viral RNA levels were measured by analysis of total RNA. […] (c) CVB3 protein levels were determined by indirect immunofluorescence, using the mouse anti-coxsackie virus B3 monoclonal antibody, MAB948, and an alexa-fluor-488-conjugated affiniPure goat anti-mouse IgG (H + L), after incubation with W13 for 24 h. […]
CVB3 or ADV7 suspensions, serially diluted 10-fold with DMEM containing 2% FBS (DMEM maintenance medium, MM), were inoculated to Hep-2 or HeLa cells in 96-well plates. […] After 2 days, infected cells were monitored for CPEs and virus titers were calculated using the Reed–Muench method.

CVB3 RNA = CVB3 RNA by quantitative reverse transcription-PCR; settings: 160 μM, Hep-2 cells, 32 h pi, normalized to GAPDH
Method: To further investigate the effects of these compounds on CVB3 replication, we analyzed the efficacy of representative compound, W13, in inhibiting viral progeny yield, RNA synthesis, and protein translation. Infected cells treated with or without 160 μM W-13 were harvested after 4 h, 8 h, 16 h and 32 h, viral progeny yields were determined using the Reed–Muench method, and quantitative reverse transcription polymerase chain reaction analysis of harvested cells were conducted, to evaluate the relative amounts of viral RNA. […] Figure 5b illustrates the efficacy of W-13 in inhibiting viral RNA synthesis. Viral RNA became detectable in the virus control group during the first 4 h pi, followed by significant increases at subsequent time points.
Figure 5 Effect of W13 on CVB3 replication in Hep-2 cells. Hep-2 cells infected with 100 TCID50 CVB3 were incubated in the absence or presence of 160 µM W13 and harvested at the indicated times post-infection. (a) Progeny virus yields were determined. (b) Viral RNA levels were measured by analysis of total RNA. GAPDH was amplified and the resulting data was used for normalization. […] (c) CVB3 protein levels were determined by indirect immunofluorescence, using the mouse anti-coxsackie virus B3 monoclonal antibody, MAB948, and an alexa-fluor-488-conjugated affiniPure goat anti-mouse IgG (H + L), after incubation with W13 for 24 h. […]

CVB3 [3] = assay: Viral release analysis; settings: Hep-2 cells, 12 h; intra- and extracellular titers; 120 μM W-9, 160 μM W-13, W-15, ribavirin
Method: as §1
The viral life cycle is completed by release of progeny for further infection of neighboring cells. Therefore, we tested whether viral release from cells is affected by W9, W13, and W15. Hep-2 cells infected with 100 TCID50 of CVB3 were incubated with test compounds for 12 h, then both cells and supernatants (intra- and extracellular), or one of which was harvested separately, and virus yields were determined. Ribavirin was used as the positive control.
Hep-2 cells were treated with or without 120 μM W-9, 160 μM W-13, 160 μM W-15, or 160 μM ribavirin after infection with 100 TCID50 of CVB3. Supernatants and cells were harvested together or separately for the determination of progeny virus yields at 12 h pi by the Reed–Muench method.

Cc1ccc(OC(=O)C(C)(C)C)c(-c2ccccn2)c1 [W13]
inhibition of CVB3, compound added just before or during infection (CVB3 [1]): no significant inhibition
inhibitory effect against CVB3, compound added post infection (CVB3 [1]): most powerful inhibitory effects
reduction in viral replication (progeny virus titer) (CVB3 [2]): ~3.0 log
reduction of viral RNA copy numbers (CVB3 RNA): approximately 500 fold
effect on CVB3 release from cells (CVB3 [3]): do not act on viral release from cells

CC(=O)Oc1ccc(-c2ccccn2)c(OC(=O)c2ccccc2)c1 [W15]
inhibition of CVB3, compound added just before or during infection (CVB3 [1]): no significant inhibition
inhibitory effect against CVB3, compound added post infection (CVB3 [1]): most powerful inhibitory effects
effect on CVB3 release from cells (CVB3 [3]): do not act on viral release from cells

O=C(Oc1cc(Cl)ccc1-c1ccccn1)c1ccccc1 [W9]
inhibition of CVB3, compound added just before or during infection (CVB3 [1]): no significant inhibition
inhibitory effect against CVB3, compound added post infection (CVB3 [1]): most powerful inhibitory effects
effect on CVB3 release from cells (CVB3 [3]): do not act on viral release from cells

NC(=O)c1ncn([C@@H]2O[C@H](CO)[C@@H](O)[C@H]2O)n1 [Ribavirin, reference compound]
effect on CVB3 release from cells (CVB3 [3]): do not act on viral release from cells
